This assay has as its system monocrotaline (MCT)-treated rats. The assay can be described thus: Acute hemodynamic effects of benzbromarone in monocrotaline (MCT)-treated rats. The settings on record: single i.v. bolus of 300 μM. In kind it is in vivo, rat. On the procedure: Male Sprague-Dawley rats (body weight: approx. 250 g, Charles River) received a single subcutaneous injection of monocrotaline (MCT, 60 mg/kg, n=16) or vehicle (control group, n=8). Since significant RVSP increase and PA muscularization had been detected as early as 12 days after the injection of MCT58, two weeks after monocrotaline treatment rats were randomly ordered into two groups. Subcutaneous slow-release pellets (Innovative Research of America) that contained either benzbromarone (MCT+BBR, n=8) or vehicle (MCT+Veh, n=8) were implanted. Four weeks after monocrotaline treatment all rats were subjected to echocardiography and in vivo hemodynamic measurements, thereafter they were sacrificed for organ collection. In rats, in vivo hemodynamic measurements were conducted as described above for the mice, with the exception that for the right ventricular and the systolic blood pressures, 2 F Millar Catheters (SPR-513 and SPR-320, respectively) were used. The above described control and MCT+Veh groups were included in this study. Benzbromarone was injected into the left jugular vein as a single bolus ([…], i.v. in 100 μl saline) and pressures were monitored until a maximum effect was observed (approx. 10 minutes).

Structures are written as SMILES.

On to `CCc1oc2ccccc2c1C(=O)c1cc(Br)c(O)c(Br)c1` [benzbromarone, (2-Ethyl-3-benzofuranyl)-(3,5-dibrom-4-hydroxyphenyl)ketone], for which the RVSP entry (MCT-treated rats) was “significant decrease”. The “RVSP in the control animals” value (vehicle-treated control rats) is “without affecting”.

The record behind these values is patent publication US20210156844A1, “TMEM16A Modulation for Diagnostic or Therapeutic Use in Pulmonary Hypertension (PH)” (Bayer Aktiengesellschaft, priority 2017, published 2021).
